TGI and GI50 data for 13 compounds are collected here from PubChem BioAssay (NCI).

Several values for one entry are separate records, joined by “and”; a condition that tells them apart may be missing. Equal values may be shown once.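 These data come from cells grown in 96-well plates and exposed to compound for 48 hours at five concentrations. GI50 is the concentration that inhibits growth by half. TGI: concentration producing complete growth inhibition.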

Test systems include A498 renal; HCT-15 colon; KM12 colon; MALME-3M melanoma; MOLT-4 leukemia; OVCAR-3 ovarian; SF-268 CNS; SK-MEL-5 melanoma; SNB-75 CNS; UO-31 renal.
Holding throughout (assay): NCI anticancer screen, dose series, 48 h

With `N#CC1N(C(=O)c2ccc(F)cc2)c2ccccc2N1C(=O)c1ccc(F)cc1`, the TGI with A498 renal was more than 100 µM; in the assay with HCT-15 colon it was more than 100 µM; in the assay on KM12 colon it was more than 100 µM; in the assay on MALME-3M melanoma, more than 100 µM; with MOLT-4 leukemia it was 82.8 µM; in the assay on OVCAR-3 ovarian, more than 100 µM. Besides, the TGI with SF-268 CNS was more than 100 µM; in the assay on SK-MEL-5 melanoma, 63.2 µM; with SNB-75 CNS it was more than 100 µM; with UO-31 renal, more than 100 µM.

Turning to `O=C1Nc2ccccc2NC1C1OC(c2ccccc2)=CC1=O` (stereo not given), the TGI in the assay on A498 renal, in the assay on HCT-15 colon, in the assay on KM12 colon, with MALME-3M melanoma, in the assay on MOLT-4 leukemia and in the assay on OVCAR-3 ovarian was more than 100 µM each time. Also, the TGI in the assay on SF-268 CNS, in the assay with SK-MEL-5 melanoma, in the assay with SNB-75 CNS and with UO-31 renal was more than 100 µM each time.

As to `Cc1cc(=O)c2c(O)c3c(O)cc(O)c4c5c(O)cc(O)c6c(O)c7c(=O)cc(C)c8c1c2c(c34)c(c65)c78`, the GI50 in the assay on A498 renal is 64.9 µM and 28.9 µM; in the assay with HCT-15 colon, > 100 µM and 20.1 µM; in the assay with SNB-75 CNS it was > 100 µM and 32.3 µM; in the assay with UO-31 renal, > 100 µM and 25.5 µM. For the same compound, the TGI with A498 renal was > 100 µM and 75.6 µM; with HCT-15 colon it was > 100 µM and 52 µM; in the assay with KM12 colon, more than 100 µM; in the assay on MALME-3M melanoma, more than 100 µM; in the assay with MOLT-4 leukemia, > 100 µM and 24.2 µM; with OVCAR-3 ovarian, more than 100 µM. Further, the TGI was more than 100 µM in the assay on SF-268 CNS; more than 100 µM in the assay with SK-MEL-5 melanoma; more than 100 µM in the assay on SNB-75 CNS; > 100 µM and 65.9 µM with UO-31 renal.

As to `C=C(C)CC1=C(C(=S)NCCO[Si](C)(C)C(C)(C)C)C(OCC)(OCC)C1=O`, the TGI was 40.5 µM in the assay with A498 renal; 47.5 µM with HCT-15 colon; 45.9 µM in the assay on KM12 colon; 27.1 µM with MALME-3M melanoma; more than 100 µM in the assay on MOLT-4 leukemia; 47.4 µM with SF-268 CNS. Moreover, the TGI came out at 51 µM with SK-MEL-5 melanoma, 36.8 µM in the assay on SNB-75 CNS and 35.9 µM in the assay with UO-31 renal.

As for `Cc1nc2ccccc2c(=O)n1NC(=O)Cc1ccccc1`, the TGI in the assay on A498 renal, in the assay with KM12 colon, in the assay on MALME-3M melanoma, in the assay with MOLT-4 leukemia, with OVCAR-3 ovarian and in the assay on SF-268 CNS was more than 100 µM each time. In addition, the TGI in the assay on SK-MEL-5 melanoma, with SNB-75 CNS and in the assay on UO-31 renal was more than 100 µM throughout.

Turning to `COc1cc2c3c(cc(Cl)nc3c1OC)C(O)(CC(C)=O)C(=O)N2` (stereo not given), the TGI in the assay on A498 renal was 33.2 µM; in the assay on HCT-15 colon, more than 62.5 µM; with KM12 colon it was more than 61.6 µM; in the assay with MALME-3M melanoma, 29.8 µM; in the assay on MOLT-4 leukemia, more than 34.5 µM; in the assay with OVCAR-3 ovarian it was more than 100 µM. The TGI with SF-268 CNS was 18 µM; in the assay with SK-MEL-5 melanoma, more than 56 µM; in the assay with SNB-75 CNS it was more than 55.9 µM; in the assay with UO-31 renal, more than 55.6 µM.

Turning to `FC1CCN(C2(c3cccs3)CCCCC2)CC1`, the TGI in the assay on A498 renal, with HCT-15 colon, in the assay with KM12 colon, in the assay on MALME-3M melanoma, in the assay with MOLT-4 leukemia and with OVCAR-3 ovarian was more than 100 µM each time. In addition, the TGI in the assay on SK-MEL-5 melanoma, with SNB-75 CNS and in the assay on UO-31 renal was more than 100 µM each time.

With `CC1(C)Oc2ccc(Cl)cc2C12CC2`, the TGI in the assay on A498 renal is 29.9 µM; with HCT-15 colon it was 33 µM; in the assay on KM12 colon, 53.1 µM; in the assay on MALME-3M melanoma it was 43.2 µM; in the assay on MOLT-4 leukemia it was 44.1 µM; in the assay on OVCAR-3 ovarian, 26.7 µM. Further, the TGI in the assay with SF-268 CNS was 31.6 µM; with SK-MEL-5 melanoma, 38.6 µM; in the assay on SNB-75 CNS it was 32.3 µM; in the assay with UO-31 renal, 30.8 µM.

`C=C1C(=O)[C@]23[C@H](O)[C@H]1CC[C@H]2[C@@]12CO[C@@]3(O)C[C@@H]1C(C)(C)CC[C@@H]2O`: the TGI in the assay on A498 renal is 20.1 µM; in the assay on HCT-15 colon, 19.6 µM; in the assay on KM12 colon, 18.4 µM; with MALME-3M melanoma, 23.4 µM; with MOLT-4 leukemia it was more than 25 µM; in the assay with OVCAR-3 ovarian, more than 25 µM. In addition, the TGI was 20.9 µM in the assay on SF-268 CNS, more than 25 µM with SK-MEL-5 melanoma, more than 25 µM in the assay on SNB-75 CNS and more than 25 µM with UO-31 renal.

For `Cc1cc(NC2=NCCO2)c2c(c1C)CCCC2`, the TGI in the assay with A498 renal was 49.8 µM; with HCT-15 colon, 49.6 µM; with KM12 colon it was 33.5 µM; in the assay on MALME-3M melanoma it was 25.9 µM; with MOLT-4 leukemia it was 95.3 µM; in the assay with SF-268 CNS it was 54.7 µM. Moreover, the TGI with SK-MEL-5 melanoma came to 31.5 µM; in the assay with SNB-75 CNS, 67.5 µM; in the assay with UO-31 renal it was 30.7 µM.

Take `CC1CCC2c3c([nH]c4ccccc34)C3C(=O)N(C4CCCCC4)C(=O)C3C2C1` (stereo not given): the TGI is 37.9 µM in the assay on A498 renal; more than 100 µM with HCT-15 colon; more than 100 µM in the assay on MALME-3M melanoma; 39.8 µM in the assay on OVCAR-3 ovarian; 29.8 µM with SF-268 CNS; 36.1 µM in the assay with SK-MEL-5 melanoma. The TGI was found to be 8.51 µM in the assay with SNB-75 CNS and 37.2 µM with UO-31 renal.

In the case of `CCOC(=O)/C=C(/C(=O)OCC)n1c(=O)c(C)cn(C2CC(N=[N+]=[N-])C(CO)O2)c1=O` (stereo not given), the TGI is more than 100 µM in the assay with A498 renal; more than 100 µM with HCT-15 colon; more than 100 µM in the assay on KM12 colon; more than 100 µM in the assay with MALME-3M melanoma; 25.6 µM in the assay with MOLT-4 leukemia; 50.3 µM in the assay with OVCAR-3 ovarian. Moreover, the TGI with SF-268 CNS, in the assay with SNB-75 CNS and in the assay with UO-31 renal was more than 100 µM in each case.

Turning to `c1ccc(C(CCN2CCCC2)c2ccccn2)cc1` (stereo not given), the TGI in the assay with A498 renal, in the assay on HCT-15 colon, in the assay with KM12 colon, in the assay on MALME-3M melanoma, with SF-268 CNS and in the assay on SK-MEL-5 melanoma was more than 100 µM each time. Besides, the TGI in the assay with SNB-75 CNS and in the assay with UO-31 renal was more than 100 µM throughout.
